Results as given in article PMC8375664 (Frontiers in Endocrinology, 2021).
Bridge positions count the residues as written; N and C are the ends. Square brackets hold non-standard residues; d marks the D form. Peptide text beside a SMILES is read from it. d2Nal = N[C@H](Cc1ccc2ccccc2c1)C(=O)O

What was measured:
rat MC4R [1] = molecular target: T1, rat MC4R (Rattus norvegicus, UniProt P70596); experiment: cAMP production by rat MC4R in transfected COS-7 cells (agonist mode)
human MC4R = human MC4R (Homo sapiens, UniProt P32245); experiment: cAMP production by human MC4R in transfected COS-7 cells (agonist mode)
rat MC4R [2] = molecular target: T1, rat MC4R; experiment: Inhibition of agonist-induced cAMP production by rat MC4R in transfected COS-7 cells (antagonist mode)
[3] = tested on: human gut specimens (duodenum, ileum and colon); conditions: incubation of human gut specimens from duodenum; cited from earlier work
Text: Glucagon-like peptide-1 (GLP-1) is a gastrointestinal hormone that is secreted from intestinal L-cells after meal intake. It acts to inhibit appetite and potentiate glucose-stimulated insulin secretion ([1]–[3]). These actions led to the development of GLP-1 based drugs, which have been used for more than a decade for type-2-diabetes treatment and recently also to induce weight loss. In parallel with the development and refinement of GLP-1 based drugs, research has been directed at uncovering the molecular mechanisms responsible for GLP-1 secretion, aiming to create a therapeutically relevant ...

[4] = tested on: isolated perfused rat distal small intestine; experiment: GLP-1 secretion from isolated perfused rat distal small intestine
Protocol: Male Wistar rats (~250 g) and male C57BL/6JRj mice (~28 g, 11–12 weeks) were purchased from the Janvier Labs (Le Genest-Saint-Isle, France). Mice and rats were housed with ad libitum access to standard chow and water following a 12:12 h light:dark cycle and were acclimatized for a least a week before experiments. On the day of experiment, rats and mice were transferred to our perfusion facility and anesthetized with a subcutaneous injection of hypnorm/midazolam (rats) (0.3 ml/100 g body weight, per ml: 0.08 mg fentanyl, 2.5 mg fluanisone, 0.45 mg Methyl Parahydroxybenzoate, 0.05 mg Propyl Parahydroxybenzoate, Midazolam: 1.25 mg, Matrix Pharmaceuticals, Hellerup, Denmark) or with an intraperitoneal injection of Ketamine/Xylazine (0.1 ml/20 g) (90 mg/kg Ketamine, Ketaminol Vet, MSD Animal Health; 10 mg/kg Xylazine, Rompun Vet., Bayer Animal Health) respectively, to block the activity of pain sensing nerves and to induce surgical anesthesia. For distal perfusions, the rat or mouse was placed on a heated operating table (37°C), the abdominal cavity was opened by a mid-line incision and the large intestine was excised after tying off the supplying vasculature. Furthermore, the upper half of the small intestine was removed. In the rat, the lower half of the small intestine (~50 cm) was retained and perfused in situ after insertion of a catheter into the upper mesenteric artery, while perfusion effluent was collected through a catheter inserted in the portal vein. […]
(§1) Total GLP-1 concentrations in venous effluents were quantified using an in-house RIA (code: 89390) ([23]). […] Samples were assayed non-extracted and concentrations were calculated by a four-parameter interpolation to a standard curve containing synthetic GLP-1 7–36 amide (H-6795-GMP, Bachem, Bubendorf, Switzerland) ranging from 5 to 320 pmol/L. I^125-labeled GLP-1 7–36 amide (a gift from Novo Nordisk A/S, Bagssværd, Denmark) was used as tracer. […]

[5] = tested on: isolated perfused mouse small intestine, upper half; experiment: GLP-1 secretion from isolated perfused mouse small intestine, upper half; conditions: vascular administration at end of experiments
Protocol: (§2) Male Wistar rats (~250 g) and male C57BL/6JRj mice (~28 g, 11–12 weeks) were purchased from the Janvier Labs (Le Genest-Saint-Isle, France). Mice and rats were housed with ad libitum access to standard chow and water following a 12:12 h light:dark cycle and were acclimatized for a least a week before experiments. On the day of experiment, rats and mice were transferred to our perfusion facility and anesthetized with a subcutaneous injection of hypnorm/midazolam (rats) (0.3 ml/100 g body weight, per ml: 0.08 mg fentanyl, 2.5 mg fluanisone, 0.45 mg Methyl Parahydroxybenzoate, 0.05 mg Propyl Parahydroxybenzoate, Midazolam: 1.25 mg, Matrix Pharmaceuticals, Hellerup, Denmark) or with an intraperitoneal injection of Ketamine/Xylazine (0.1 ml/20 g) (90 mg/kg Ketamine, Ketaminol Vet, MSD Animal Health; 10 mg/kg Xylazine, Rompun Vet., Bayer Animal Health) respectively, to block the activity of pain sensing nerves and to induce surgical anesthesia. […]
as §1

[6] = tested on: isolated perfused distal mouse small intestine; experiment: GLP-1 secretion from isolated perfused mouse small intestine, distal part; conditions: vascular administration at end of experiment
Protocol: as §2, §1

T1 sequence (P70596 whole entry): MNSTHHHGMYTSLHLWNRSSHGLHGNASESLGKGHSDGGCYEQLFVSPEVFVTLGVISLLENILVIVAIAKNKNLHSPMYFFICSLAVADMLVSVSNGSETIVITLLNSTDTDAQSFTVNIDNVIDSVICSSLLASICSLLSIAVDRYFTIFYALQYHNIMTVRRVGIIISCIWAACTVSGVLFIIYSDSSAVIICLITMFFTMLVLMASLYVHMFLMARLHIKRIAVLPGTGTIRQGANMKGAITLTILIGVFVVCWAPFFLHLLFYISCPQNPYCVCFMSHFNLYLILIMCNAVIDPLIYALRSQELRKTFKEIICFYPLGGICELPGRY
Sequence of human MC4R (P32245 whole entry): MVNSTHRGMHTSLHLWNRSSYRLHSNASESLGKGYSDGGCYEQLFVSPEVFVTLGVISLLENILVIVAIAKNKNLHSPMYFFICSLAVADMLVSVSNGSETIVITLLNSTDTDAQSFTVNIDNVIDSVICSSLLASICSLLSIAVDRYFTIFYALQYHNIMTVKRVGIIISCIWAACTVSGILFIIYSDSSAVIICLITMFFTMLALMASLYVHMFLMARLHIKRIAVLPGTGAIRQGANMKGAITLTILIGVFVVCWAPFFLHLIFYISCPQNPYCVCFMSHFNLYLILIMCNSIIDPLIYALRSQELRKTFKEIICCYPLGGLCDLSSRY

Compound: CC(=O)N[C@H]1CSSC[C@@H](C(=O)N2CCC[C@H]2C(=O)N2CCC[C@H]2C(=O)N[C@@H](CCCCN)C(=O)N[C@@H](CC(=O)O)C(N)=O)NC(=O)CNC(=O)[C@H](Cc2c[nH]c3ccccc23)NC(=O)[C@H](CCCNC(=N)N)NC(=O)[C@@H](Cc2ccc3ccccc3c2)NC(=O)[C@H](Cc2c[nH]cn2)NC(=O)[C@H](CCC(=O)O)NC1=O [HS014] (Ac-CEH[d2Nal]RWGCPPKD-NH2; disulfide 1-8)
- EC50 (rat MC4R [1]): 15.8 nM
- Emax (rat MC4R [1]; COS-7, read-out: Emax on rat MC4R relative to alpha-MSH Emax): ~40%
- EC50 (human MC4R): 35 nM
- IC50 (rat MC4R [2]): 6.31 nM

Compound: CC(=O)N[C@@H](C)c1cc(Cl)ccc1C1CCN(C(=O)[C@@H]2CN(C(C)(C)C)C[C@H]2c2ccc(F)cc2F)CC1 [MK-0493]
- effect on GLP-1 and PYY secretion [3]: increased

Compound: OC[C@H]1OC(O)[C@H](O)[C@@H](O)[C@@H]1O (stereo partly shown) [glucose]
- total GLP-1 output during first luminal glucose stimulation, control experiment ([4]; luminal glucose 20% w/v, 15 min, baseline 1.8 ± 0.2 pmol, P <0.001, n = 6): 4.8 ± 0.34 pmol
- total GLP-1 output during first luminal glucose stimulation, glucose + HS014 experiment (before HS014) ([4]; luminal glucose 20% w/v, 15 min, baseline 2.0 ± 0.5 pmol, P = 0.01, n = 6): 5.6 ± 1.0 pmol
- fold increase of GLP-1 secretion by luminal glucose ([4]; luminal glucose infusion): 2–3 fold

Compound: bombesin
- effect on GLP-1 output (positive control) [5]: robustly increased GLP-1 output
- effect on GLP-1 output (positive control) [6]: robustly increased GLP-1 output
